Test results published in patent US12234231B2, “EIF4E inhibitors and uses thereof” (PIC Therapeutics, Inc., priority 2021, dated 2025).

The compounds below were run against T1, Human eIF4E (aa 28-217) (Homo sapiens, UniProt P06730) (assay: Human eIF4E/4G2 binding assay (TR-FRET)). Conditions: purified eIF4E with biotin labeled 4G2 peptide, 4 hours preincubation at room temperature.
T1 construct: Human eIF4E (aa 28-217) with a C-terminal His-tag; made in house
Method: Example 3. Compound Testing in Human eIF4E/4G2 Binding Assay
1004461 Human eIF4E (aa 28-217) with a C-terminal His-tag was expressed in E. coli in inclusion bodies. The protein was solubilized with 8 M urea and purified under denaturing conditions using nickel-charged HisTrap HP columns (GE Healthcare). The purified protein was then refolded by diluting in 20 mM Hepes pH 7.0, 0.5 M NaCl, 1 mM DTT, 1 mM EDTA, 0.5 M arginine plus 6 M urea, and then dialyzing overnight into the same buffer without the urea. The protein was further dialyzed into 20 mM Hepes, pH 6.5, 50 mM NaCl, 1 mM EDTA, 1 mM DTT, and concentrated using Hitrap SP sepharose FF columns (GE Healthcare). The concentrated protein was dialyzed into 20 mM Hepes, pH 7.0, 0.5M NaCl, 5 mM DTT and 10% glycerol, and stored at −80° C. until use.
Test compounds (3.43 mM stock in DMSO) were diluted 2-fold in series in DMSO (10 concentration points). Compound solutions (1.2 μl/well) were added into black 384-well polypropylene microplates (Matrix, Thermal Scientific). Twenty-two microliters per well of Assay Buffer (50 mM NaPi, pH 6.5, 50 mM KCl, 1 mM DTT and 0.5 mg/ml gamma globulin) and eight microliters per well of 82.5 nM purified eIF4E in Assay Buffer were added. The samples were incubated at room temperature (20-23° C.) for 4 hours. Biotin labeled 4G2 peptide (Ac-Lys-Gln-Tyr-Asp-Arg-Glu-Phe-Leu-Leu-Asp-Phe-Gln-Phe-Met-Pro-Lys(Aha-Bio)-NH2, 1.75 μM stock in DMSO) was diluted to 0.14 μM in Assay Buffer (without DTT) and 5 μl/well was added. The samples were incubated at room temperature for 20 min. Five microliters per well of 6.4 nM Eu-streptavidin (Eu-SA, Perkin Elmer) and 80 nM Allophycocyanin (APC)-anti His antibody (Columbia Biosciences) in Assay Buffer (without DTT) were then added and the samples were incubated at room temperature for 20 min.
Assay signals were monitored by reading excitation at 340 nm and emission fluorescence at 615 nm and 665 nm on an Envision reader (Perkin Elmer). Normalized TR-FRET (time-resolved fluorescence resonance energy transfer) assay signal (Rn) was calculated by the formula: Rn=[(A−Ba−C×D)/(D−Bd)]×(Dc−Bd) • Where A is the fluorescence intensity of the sample at 665 nm, • D is the fluorescence intensity of the sample at 615 nm, • Ba and Bd are plate backgrounds at 665 nm and 615 nm, respectively, • Dc is the fluorescence intensity of 0.78 nM Eu-SA in the assay buffer at 615 nm
The cross-talk factor (C) is determined by the following formula: C=(Ac−Ba)/(Dc−Bd) Where Ac is the fluorescence intensity of 0.78 nM Eu-SA in the assay buffer at 665 nm.
IC50 values were calculated using xLFit program (IDBS). Table 2 below lists EC50 of some compounds, wherein A represents IC50≤0.5 μM; B represents 0.5 uM<IC50≤1 μM; and C represents IC50>1 μM.

T1 sequence (P06730 28-217): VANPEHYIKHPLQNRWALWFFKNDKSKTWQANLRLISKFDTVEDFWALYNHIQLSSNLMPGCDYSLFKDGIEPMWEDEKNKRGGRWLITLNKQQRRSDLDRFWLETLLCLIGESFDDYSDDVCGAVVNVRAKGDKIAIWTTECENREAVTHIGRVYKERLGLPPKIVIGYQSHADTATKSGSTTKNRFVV

IC50 [nM] | SMILES
≤ 500 | COCCOc1cc(-c2nc(Nc3ncc(-c4cccs4)cc3C(=O)O)sc2CC(C)(C)C)ccc1Cl [I-95]
500 to 1000 | COCCOc1ccc(-c2nc(Nc3ncc(-c4cccs4)cc3C(=O)O)sc2CC(C)C)cc1F [I-30]
≤ 500 | COCCOc1ccc(-c2nc(Nc3cnc(-c4cccs4)cc3C(=O)O)sc2Cc2ccccc2)cc1F [I-63]
> 1000 | CNCCNC(=O)c1cc(-c2cccs2)cnc1Nc1nc(-c2ccc(OCCOC)c(F)c2)c(CC(C)C)s1 [I-56, 2-((4-(3-fluoro-4-(2-methoxyethoxy)phenyl)-5-isobutylthiazol-2-yl)amino)-N-(2-(methylamino)ethyl)-5-(thiophen-2-yl)nicotinamide]
